Test results as given in US20220125093A1, “NUTRITIONAL SUPPLEMENTS INCLUDING MEAL REPLACEMENTS AND RELATED METHODS” (Ohio State Innovation Foundation, priority 2012, published 2022).

Columns and labels:
[1] = single dose of zinc, healthy young adult women, blood at 0, 1, 2, 3 and 4 hours
Excerpt: Zinc glycinate has not been studied at all in people who have had bariatric surgery. Furthermore, in published studies on any types of people, zinc glycinate has not been compared much to other forms of zinc. Thus, an unpublished comparative study was done in healthy young adult women that compared zinc glycinate to two other forms of zinc. The study utilized an indirect approach of absorption. In this approach, a single dose of zinc was given to young adult women; blood was taken at 0, 1, 2, 3, and 4 hours. Both plasma and red blood cells (erythrocytes) were analyzed for zinc and for each, an area under the curve graph was calculated for zinc content versus time.

[2] = Iron status as ferritin/CRP ratio after bariatric surgery; assay type: in vivo, human; conditions: added to meal replacement product, same amount of iron for each group
Excerpt: Design. Young adult females who were about to have bariatric surgery were recruited. Blood and urine samples were taken before surgery and 6 weeks later. People were divided into two groups. One group drank 2 servings per day of the new product related to this patent (N=12) for 6 weeks. The other group drank 2 servings of a current meal replacement product and also took other supplements including sublingual vitamin B12. The new product had the B12 put right in the meal replacement product. The vitamin is put in the product at a daily dose that is very high relative to normal recommendations, and high relative to what was used for injections or sublingual administration. Also, a coenzyme form of the vitamin was used in the meal replacement product.
Iron status was measured as ferritin/CRP ratios (ferritin reflects iron status but can also be influenced by inflammation; CRP only reflects inflammation).

| Compound | erythrocyte (red blood cell) zinc area under the curve [1] | plasma zinc area under the curve [1] | iron status (ferritin/CRP ratios) [2] |
| --- | --- | --- | --- |
| NCC(=O)[O-].NCC(=O)[O-].[Zn+2] [Zinc glycinate, zinc glycinate] | outperformed zinc oxide and gluconate | outperformed zinc oxide and gluconate | – |
| Iron Glycinate Chelate | – | – | improved iron status to about the same degree as a conventional bariatric meal replacement product+iron lozenges |
